Results taken from the NIST ThermoML archive (doi:10.1016/j.jct.2006.05.008).
± gives the expanded uncertainty stated by the source.

Test: molar heat capacity at constant pressure
Conditions: 101.33 kPa

CCC[n+]1ccn(C)c1.[Br-] [1-methyl-3-propylimidazolium bromide]
Conditions | molar heat capacity at constant pressure [J/K/mol]
244.42 K, Liquid, Small (less than 1 g) adiabatic calorimetry | 265 ± 1.3
244.52 K, Crystal, Vacuum adiabatic calorimetry | 198.49 ± 0.4
244.94 K, Crystal, Vacuum adiabatic calorimetry | 198.95 ± 0.4
245.29 K, Metastable crystal, Small (less than 1 g) adiabatic calorimetry | 199.04 ± 1
245.35 K, Liquid, Small (less than 1 g) adiabatic calorimetry | 265.6 ± 1.3
245.89 K, Crystal, Vacuum adiabatic calorimetry | 199.57 ± 0.4
246.52 K, Liquid, Small (less than 1 g) adiabatic calorimetry | 265.56 ± 1.3
246.54 K, Liquid, Small (less than 1 g) adiabatic calorimetry | 266.09 ± 1.3
247.02 K, Crystal, Vacuum adiabatic calorimetry | 200.86 ± 0.4
247.27 K, Crystal, Vacuum adiabatic calorimetry | 200.82 ± 0.4
247.37 K, Liquid, Small (less than 1 g) adiabatic calorimetry | 266.15 ± 1.3
247.66 K, Metastable crystal, Small (less than 1 g) adiabatic calorimetry | 201.1 ± 1
248.62 K, Liquid, Small (less than 1 g) adiabatic calorimetry | 266.07 ± 1.3
248.65 K, Crystal, Vacuum adiabatic calorimetry | 202.17 ± 0.4
248.84 K, Liquid, Small (less than 1 g) adiabatic calorimetry | 267.47 ± 1.3
249.1 K, Crystal, Vacuum adiabatic calorimetry | 202.81 ± 0.4
249.39 K, Liquid, Small (less than 1 g) adiabatic calorimetry | 266.73 ± 1.3
250.02 K, Crystal, Vacuum adiabatic calorimetry | 203.57 ± 0.4
250.02 K, Metastable crystal, Small (less than 1 g) adiabatic calorimetry | 203.18 ± 1
250.73 K, Liquid, Small (less than 1 g) adiabatic calorimetry | 266.58 ± 1.3
251.18 K, Crystal, Vacuum adiabatic calorimetry | 204.9 ± 0.41
251.4 K, Crystal, Vacuum adiabatic calorimetry | 204.98 ± 0.41
251.41 K, Liquid, Small (less than 1 g) adiabatic calorimetry | 267.3 ± 1.3
251.54 K, Crystal, Vacuum adiabatic calorimetry | 205.96 ± 0.41
252.37 K, Metastable crystal, Small (less than 1 g) adiabatic calorimetry | 205.32 ± 1
252.77 K, Crystal, Vacuum adiabatic calorimetry | 206.43 ± 0.41
252.83 K, Liquid, Small (less than 1 g) adiabatic calorimetry | 267.16 ± 1.3
253.26 K, Crystal, Vacuum adiabatic calorimetry | 207.11 ± 0.41
253.43 K, Liquid, Small (less than 1 g) adiabatic calorimetry | 267.81 ± 1.3
254.71 K, Metastable crystal, Small (less than 1 g) adiabatic calorimetry | 207.8 ± 1
254.93 K, Liquid, Small (less than 1 g) adiabatic calorimetry | 267.63 ± 1.3
255.35 K, Crystal, Vacuum adiabatic calorimetry | 209.48 ± 0.41
255.45 K, Liquid, Small (less than 1 g) adiabatic calorimetry | 268.35 ± 1.3
257.03 K, Liquid, Small (less than 1 g) adiabatic calorimetry | 268.27 ± 1.3
257.05 K, Metastable crystal, Small (less than 1 g) adiabatic calorimetry | 210.12 ± 1
257.43 K, Crystal, Vacuum adiabatic calorimetry | 211.8 ± 0.41
257.47 K, Liquid, Small (less than 1 g) adiabatic calorimetry | 268.84 ± 1.3
259.14 K, Liquid, Small (less than 1 g) adiabatic calorimetry | 268.9 ± 1.3
259.38 K, Metastable crystal, Small (less than 1 g) adiabatic calorimetry | 212.62 ± 1
259.49 K, Liquid, Small (less than 1 g) adiabatic calorimetry | 269.39 ± 1.3
259.52 K, Crystal, Vacuum adiabatic calorimetry | 214.55 ± 0.41
260.55 K, Crystal, Vacuum adiabatic calorimetry | 216.79 ± 0.41
261.24 K, Liquid, Small (less than 1 g) adiabatic calorimetry | 269.33 ± 1.3
261.52 K, Liquid, Small (less than 1 g) adiabatic calorimetry | 269.97 ± 1.3
261.6 K, Crystal, Vacuum adiabatic calorimetry | 217.5 ± 0.41
261.65 K, Liquid, Small (less than 1 g) adiabatic calorimetry | 270.17 ± 1.3
261.69 K, Metastable crystal, Small (less than 1 g) adiabatic calorimetry | 215.45 ± 1.1
263.34 K, Liquid, Small (less than 1 g) adiabatic calorimetry | 269.95 ± 1.3
263.54 K, Liquid, Small (less than 1 g) adiabatic calorimetry | 270.5 ± 1.3
263.69 K, Crystal, Vacuum adiabatic calorimetry | 220.52 ± 0.43
263.7 K, Liquid, Small (less than 1 g) adiabatic calorimetry | 270.42 ± 1.3
264 K, Metastable crystal, Small (less than 1 g) adiabatic calorimetry | 218.39 ± 1.1
265.44 K, Liquid, Small (less than 1 g) adiabatic calorimetry | 270.58 ± 1.3
265.56 K, Liquid, Small (less than 1 g) adiabatic calorimetry | 271.1 ± 1.3
265.73 K, Liquid, Small (less than 1 g) adiabatic calorimetry | 270.91 ± 1.3
265.77 K, Crystal, Vacuum adiabatic calorimetry | 223.78 ± 0.43
266.29 K, Metastable crystal, Small (less than 1 g) adiabatic calorimetry | 221.46 ± 1.1
267.55 K, Liquid, Small (less than 1 g) adiabatic calorimetry | 271.24 ± 1.3
267.58 K, Liquid, Small (less than 1 g) adiabatic calorimetry | 271.73 ± 1.3
267.75 K, Liquid, Small (less than 1 g) adiabatic calorimetry | 271.67 ± 1.3
267.85 K, Crystal, Vacuum adiabatic calorimetry | 227.51 ± 0.43
268.56 K, Metastable crystal, Small (less than 1 g) adiabatic calorimetry | 224.85 ± 1.1
269.36 K, Crystal, Vacuum adiabatic calorimetry | 231.51 ± 0.43
269.61 K, Liquid, Small (less than 1 g) adiabatic calorimetry | 272.26 ± 1.3
269.67 K, Liquid, Small (less than 1 g) adiabatic calorimetry | 271.61 ± 1.3
269.77 K, Liquid, Small (less than 1 g) adiabatic calorimetry | 272.2 ± 1.3
269.93 K, Crystal, Vacuum adiabatic calorimetry | 231.49 ± 0.43
270.71 K, Metastable crystal, Small (less than 1 g) adiabatic calorimetry | 224.7 ± 1.1
270.82 K, Metastable crystal, Small (less than 1 g) adiabatic calorimetry | 229.03 ± 1.1
271.87 K, Liquid, Small (less than 1 g) adiabatic calorimetry | 272.35 ± 1.3
272 K, Crystal, Vacuum adiabatic calorimetry | 235.92 ± 0.43
272.05 K, Liquid, Small (less than 1 g) adiabatic calorimetry | 273.02 ± 1.3
273.43 K, Metastable crystal, Small (less than 1 g) adiabatic calorimetry | 235.43 ± 1.1
273.97 K, Liquid, Small (less than 1 g) adiabatic calorimetry | 272.86 ± 1.3
274.08 K, Crystal, Vacuum adiabatic calorimetry | 241.07 ± 0.45
274.59 K, Liquid, Small (less than 1 g) adiabatic calorimetry | 273.93 ± 1.3
275.18 K, Metastable crystal, Small (less than 1 g) adiabatic calorimetry | 235.92 ± 1.1
276.07 K, Liquid, Small (less than 1 g) adiabatic calorimetry | 273.68 ± 1.3
276.15 K, Crystal, Vacuum adiabatic calorimetry | 246.77 ± 0.45
276.27 K, Metastable crystal, Small (less than 1 g) adiabatic calorimetry | 241.56 ± 1.2
277.13 K, Liquid, Small (less than 1 g) adiabatic calorimetry | 274.62 ± 1.3
277.85 K, Crystal, Vacuum adiabatic calorimetry | 253.97 ± 0.45
278.17 K, Liquid, Small (less than 1 g) adiabatic calorimetry | 274.27 ± 1.3
278.22 K, Crystal, Vacuum adiabatic calorimetry | 253.72 ± 0.45
279.07 K, Metastable crystal, Small (less than 1 g) adiabatic calorimetry | 249.25 ± 1.2
279.67 K, Liquid, Small (less than 1 g) adiabatic calorimetry | 275.3 ± 1.3
280.27 K, Liquid, Small (less than 1 g) adiabatic calorimetry | 274.91 ± 1.3
281.68 K, Metastable crystal, Small (less than 1 g) adiabatic calorimetry | 255.47 ± 1.2
281.81 K, Metastable crystal, Small (less than 1 g) adiabatic calorimetry | 258.32 ± 1.2
282.22 K, Liquid, Small (less than 1 g) adiabatic calorimetry | 276.12 ± 1.3
282.37 K, Liquid, Small (less than 1 g) adiabatic calorimetry | 275.55 ± 1.3
284.47 K, Liquid, Small (less than 1 g) adiabatic calorimetry | 276.33 ± 1.3
284.5 K, Metastable crystal, Small (less than 1 g) adiabatic calorimetry | 269.64 ± 1.3
284.76 K, Liquid, Small (less than 1 g) adiabatic calorimetry | 277 ± 1.3
286.57 K, Liquid, Small (less than 1 g) adiabatic calorimetry | 276.88 ± 1.3
287.11 K, Metastable crystal, Small (less than 1 g) adiabatic calorimetry | 284.18 ± 1.3
287.31 K, Liquid, Small (less than 1 g) adiabatic calorimetry | 277.78 ± 1.3
287.83 K, Metastable crystal, Small (less than 1 g) adiabatic calorimetry | 291.75 ± 1.4
288.67 K, Liquid, Small (less than 1 g) adiabatic calorimetry | 277.6 ± 1.3
289.86 K, Liquid, Small (less than 1 g) adiabatic calorimetry | 278.56 ± 1.3
290.76 K, Liquid, Small (less than 1 g) adiabatic calorimetry | 278.25 ± 1.3
292.42 K, Liquid, Small (less than 1 g) adiabatic calorimetry | 279.52 ± 1.3
292.85 K, Liquid, Small (less than 1 g) adiabatic calorimetry | 278.99 ± 1.3
294.97 K, Liquid, Small (less than 1 g) adiabatic calorimetry | 280.39 ± 1.3
297.52 K, Liquid, Small (less than 1 g) adiabatic calorimetry | 281.17 ± 1.3
300.09 K, Liquid, Small (less than 1 g) adiabatic calorimetry | 282.13 ± 1.3
302.65 K, Liquid, Small (less than 1 g) adiabatic calorimetry | 282.97 ± 1.3
305.21 K, Liquid, Small (less than 1 g) adiabatic calorimetry | 283.79 ± 1.3
307.77 K, Liquid, Small (less than 1 g) adiabatic calorimetry | 284.73 ± 1.3
310.34 K, Liquid, Small (less than 1 g) adiabatic calorimetry | 285.68 ± 1.3
312.44 K, Liquid, Small (less than 1 g) adiabatic calorimetry | 286.13 ± 1.4
315.01 K, Liquid, Small (less than 1 g) adiabatic calorimetry | 287.07 ± 1.4
317.56 K, Liquid, Small (less than 1 g) adiabatic calorimetry | 287.97 ± 1.4
320.1 K, Liquid, Small (less than 1 g) adiabatic calorimetry | 288.9 ± 1.4
322.63 K, Liquid, Small (less than 1 g) adiabatic calorimetry | 289.74 ± 1.4
325.17 K, Liquid, Small (less than 1 g) adiabatic calorimetry | 290.68 ± 1.4
327.71 K, Liquid, Small (less than 1 g) adiabatic calorimetry | 291.56 ± 1.4
330.24 K, Liquid, Small (less than 1 g) adiabatic calorimetry | 292.55 ± 1.4
332.78 K, Liquid, Small (less than 1 g) adiabatic calorimetry | 293.41 ± 1.4
335.3 K, Liquid, Small (less than 1 g) adiabatic calorimetry | 294.48 ± 1.4
337.83 K, Liquid, Small (less than 1 g) adiabatic calorimetry | 295.38 ± 1.4
340.36 K, Liquid, Small (less than 1 g) adiabatic calorimetry | 295.97 ± 1.4
342.88 K, Liquid, Small (less than 1 g) adiabatic calorimetry | 296.86 ± 1.4
345.4 K, Liquid, Small (less than 1 g) adiabatic calorimetry | 297.86 ± 1.4
347.92 K, Liquid, Small (less than 1 g) adiabatic calorimetry | 298.8 ± 1.4
350.44 K, Liquid, Small (less than 1 g) adiabatic calorimetry | 299.62 ± 1.4
352.95 K, Liquid, Small (less than 1 g) adiabatic calorimetry | 300.4 ± 1.4
355.46 K, Liquid, Small (less than 1 g) adiabatic calorimetry | 301.37 ± 1.4
357.97 K, Liquid, Small (less than 1 g) adiabatic calorimetry | 302.27 ± 1.4
359.15 K, Liquid, Small (less than 1 g) adiabatic calorimetry | 302.7 ± 1.4
360.47 K, Liquid, Small (less than 1 g) adiabatic calorimetry | 303.23 ± 1.4
361.69 K, Liquid, Small (less than 1 g) adiabatic calorimetry | 304.73 ± 1.4
362.97 K, Liquid, Small (less than 1 g) adiabatic calorimetry | 304.73 ± 1.4
364.23 K, Liquid, Small (less than 1 g) adiabatic calorimetry | 305.78 ± 1.4
366.73 K, Liquid, Small (less than 1 g) adiabatic calorimetry | 305.51 ± 1.4
